Experimental data from patent US12108756B2, “Photodynamic method of inhibiting growth of a microbial plant pathogen” (priority 2019, dated 2024).

Columns and labels:
E. coli = E. coli kill with photosensitizers with and without copper under broad-spectrum Reptile Light; type: cell-based, Escherichia coli; conditions: for effectiveness as photosensitizer: as shown in Example 2, under the test conditions; for log reduction: Reptile Light 8,520 Lux (26 W/m2)
Method: In this example we compare different photosensitizers (50 μM in water) in combination with and without copper sulfate. An agricultural adjuvant sticker spreader, Silwet® L-77 was also included at a 0.0125% concentration. The conditions experimental were the same as Example 1: E. coli as the test organism, using copper sulfate at 10 ppm, and a light exposure time of 30 minutes. However, in this test series we used a light source that reproduced the spectrum of sunlight, including UV. It is used to in terrariums for housing reptiles, some of which require a UV component in their light. It is referred to here as the Reptile Light (Zoo Med 2019).
In this example we also used the Reptile Light. In these tests the light intensity was 8,520 Lux, or 26 W/m2 (for comparison, this could be full daylight on a cloudy day, or a common light level in a greenhouse). […] Silwet (see Helena 2019) is an agricultural nonionic organosilicone surfactant adjuvant wetting and spreading agent commonly used with pesticides, also commonly known as a sticker spreader).
In this example we tested a commercial algicide product, Cutrine®, which contains copper ethanolamine (from the product label: Copper Ethanolamine Complex, Mixed (Mono CAS #14215-52-2 and Tri CAS #82027-59-6) 27.9%; OTHER INGREDIENTS 72.1% TOTAL 100.0% Metallic copper equivalent, 9%; Contains 0.909 lbs. of elemental copper per gallon) (EPA Reg. No. 8959-10). Copper ethanolamine is effective in keeping the copper salt in solution at neutral pH. The tests were done as above, under the reptile light for 30 minutes.
The above tests using CuSO4 at 10 ppm is equivalent to 3.98 ppm copper. We initially tested Cutrine® at a low and a high concentration, where the low concentration is adjusted to have approximately 3.98 ppm copper as before, and the high concentration is 39.8 ppm copper (same copper concentration as 100 ppm CuSO4). We tested them with and without 18 ppm riboflavin. Again, tests were run in triplicate.

[1] = system: Escherichia coli (E. coli) bacteria (ATCC 25922); experiment: Photodynamic treatment of E. coli under blue LED light; colonies plated and reduction vs untreated control; type: cell-based; conditions: for % reduction: converted from log kill
Method: Tests were carried out with Escherichia coli (E. coli) bacteria (ATCC 25922) in which the organisms were exposed to varying test conditions. The light source for photoactivation was a blue LED light (HIGROW 2019) that was placed 7 cm from the container containing the E. coli. The photoactivator was riboflavin (Aldrich R7649, lot VVXBB4048V, purity 98.6%) at a concentration of 18 ppm. Copper sulfate was used at a concentration of 10 ppm (aqueous solution). The tests included a wetting agent Silwet® L-77 at a concentration of 0.0125%. Silwet® L-77 is a product of Helena Agri-Enterprises, LLC of Collierville, TN, and is a nonionic organosilicone surfactant co-polymer that has enhanced wetting and spreading characteristics when used in aqueous sprays. Silwet® L-77 has a CAS Registry Number of 27306-78-1. Each test was carried out for the prescribed time, which varied from 5 minutes to 30 minutes. At the end of the exposure time the bacteria were diluted and plated so that the colonies could be enumerated and the corresponding reduction determined by comparison with the untreated control.
We also carried out tests to evaluate the effect of light intensity. These tests used 10 ppm copper sulfate and 18 ppm riboflavin (aqueous solution) in a 15-minute exposure under the blue light, using neutral density filters to decrease the light intensity. The full light intensity at the 450 nm to 460 nm range was 353 W/m^2.

[2] = system: Xanthomonas hortorum pv. pelargonii; experiment: Reduction of Xanthomonas hortorum pv. pelargonii leaf spots on geranium plants in greenhouse; type: in vivo; conditions: single spray 24 hours before inoculation, leaf spots counted two weeks after inoculation
[3] = photosensitizer alone, 50 μM in water, Reptile Light, 30 minutes
[4] = photosensitizer alone, 50 μM in water, Reptile Light, 30 minutes, median (EY, RMP: average)
[5] = 10 ppm alone, blue light, 30 minutes
[6] = 10 ppm + Silwet (0.0125%), 30 minutes
[7] = 18 ppm alone, blue light, 30 minutes

O=C1OC2(c3ccccc31)c1cc(I)c(O)c(I)c1Oc1c2cc(I)c(O)c1I [ER, erythrosine]
effectiveness as photosensitizer (E. coli): effective
% kill (E. coli; [3]): 25.88%
Log kill (E. coli; [4]): 0.13 Log

O=C1OC2(c3cc(I)c(O)c(I)c3Oc3c2cc(I)c(O)c3I)c2c(Cl)c(Cl)c(Cl)c(Cl)c21 [RB, Rose Bengal]
effectiveness as photosensitizer (E. coli): effective
% kill (E. coli; [3]): 30.81%
Log kill (E. coli; [4]): 0.16 Log

O=S(=O)([O-])[O-].[Cu+2] [copper sulfate]
log kill [1, 5]: 0.954 log
% reduction [1, 5]: 88.88%
log kill ([1]; 10 ppm, in the dark, 30 minutes): 0.226 log
log reduction (E. coli; [6]): 0.13 log
% kill (E. coli; 10 ppm alone, reptile lamp, 30 minutes): 26.04%
Log kill (E. coli; 10 ppm alone, reptile lamp, 30 minutes, median value): 0.131 Log
log reduction (E. coli; 40 ppm, 30 minutes): 0.13 log

Cc1cc2nc3c(=O)[nH]c(=O)nc-3n(C[C@H](O)[C@H](O)[C@H](O)CO)c2cc1C [riboflavin]
log kill [1, 7]: 0.83 log
% reduction [1, 7]: 85.208%
log kill ([1]; 18 ppm, in the dark): did not produce any measurable kill
log reduction (E. coli; [6]): 0.15 log
Log kill (E. coli; 18 ppm alone, reptile lamp, 30 minutes): 0.115 Log
log reduction (E. coli; 50 ppm, 1 hour): 1.6 log
effectiveness as photosensitizer (E. coli): most effective
% kill (E. coli; [3]): 23.26%
Log kill (E. coli; [4]): 0.115 Log
log kill (E. coli; riboflavin alone, reptile light, 30 minutes, from previous test data): < 1 log
effectiveness against leaf spots [2]: only partially effective

Eosin Y [EY]
effectiveness as photosensitizer (E. coli): effective
% kill (E. coli; [3]): 6.46%
Log kill (E. coli; [4]): 0.87 Log

riboflavin monophosphate [RMP]
% kill (E. coli; [3]): 3.17%
Log kill (E. coli; [4]): 0.042 Log
